{"source": "patent US4473554A", "about": "“Bestatin-related compounds as immunopotentiator” (Zaidan Hojin Biseibutsu Kagaku Kenkyu Kai, priority 1982, dated 1984)", "key": {"[1]": {"test_system": "D.T.H. response in mice immunized with SRBC as antigen", "experiment": "D.T.H. footpad test in mice immunized with SRBC, Examples 3-6 (dosages per mouse)", "type": "in vivo", "details": "for Degree of swelling: control = 100; for Degree of swelling, Intraperitoneal injection / Degree of swelling, Oral administration: Table 5", "procedure": "The effect of (2S,3R)-AHPA on cell-mediated immunity was tested in the same way in Example 2, namely according to the D.T.H. technique using mice immunized with sheep red blood cell as antigen. Thus, a suspension of 10^8 sheep red blood cells in 0.05 ml of physiological saline were subcutaneously injected at the time of immunization into the right hind footpad of each CDF1 -mouse under test (female, 8 weeks-aged, 5 mice in each group) to establish D.T.H. […] The degree of swelling was evaluated. By way of comparison, bestatin was tested in the same way as above. […] The effect of (2S,3R)-AHPA on the D.T.H. response was estimated in the same manner as in the above procedure (A) of Example 3 by orally administering 1 mcg/mouse, 0.1 mcg/mouse or 0.01 mcg/mouse of (2S,3R)-AHPA to each mouse under test. […] The effect of the mode of administering (2S,3R)-AHPA on the D.T.H. response was estimated in the same manner as in the procedure (A) of Example 3, except that the test compound (as aqueous solution) was injected intraperitoneally in stead of being given orally."}, "aminopeptidase B": {"target": "T1, aminopeptidase B (Rattus norvegicus, UniProt O09175)", "T1 sequence (O09175 1-650)": "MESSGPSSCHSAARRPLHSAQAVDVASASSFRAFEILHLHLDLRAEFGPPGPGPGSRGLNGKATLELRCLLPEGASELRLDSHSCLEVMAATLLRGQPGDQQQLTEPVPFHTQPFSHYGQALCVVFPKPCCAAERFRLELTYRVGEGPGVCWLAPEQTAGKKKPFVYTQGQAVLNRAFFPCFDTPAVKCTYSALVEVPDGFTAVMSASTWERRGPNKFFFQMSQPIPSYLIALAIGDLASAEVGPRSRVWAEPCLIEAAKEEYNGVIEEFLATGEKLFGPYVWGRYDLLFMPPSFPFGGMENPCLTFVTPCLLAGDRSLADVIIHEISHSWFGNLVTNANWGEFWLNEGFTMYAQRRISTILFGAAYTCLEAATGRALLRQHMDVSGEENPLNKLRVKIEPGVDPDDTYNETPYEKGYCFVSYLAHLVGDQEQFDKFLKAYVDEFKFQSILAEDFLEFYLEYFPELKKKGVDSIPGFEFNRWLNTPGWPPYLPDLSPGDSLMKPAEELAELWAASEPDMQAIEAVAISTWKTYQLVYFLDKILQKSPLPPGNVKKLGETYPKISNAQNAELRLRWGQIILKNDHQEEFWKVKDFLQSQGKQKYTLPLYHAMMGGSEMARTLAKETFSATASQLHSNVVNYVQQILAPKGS", "details": "Journal of Medicinal Chemistry Vol. 20, No.4, pp. 510-515 (1977); cited from earlier work"}, "ICR-strain mice": {"test_system": "ICR-strain mice", "experiment": "acute toxicity, intraperitoneal, ICR-strain mice", "type": "in vivo, mouse", "details": "dosage of 100 mg/kg", "excerpt": "In order to estimate the acute toxicity of the compound of the formula (VIII) or (IIId), some of the test compound was intraperitoneally given to ICR-strain mice (in groups each consisting of 6 mice, male, 5 weeks-aged, average body weight 20 g.), when all the tested mice tolerated intraperitoneal administration of (2S,3R)-APHA; (2S)-2-N-[(2'S,3'R)-3'-amino-2'-hydroxy-4'-phenyl-butanoyl]amino-4-methyl- pentanol; (2S)-2-N-[(2'S,3'R)-3'-amino-2'-hydroxy-4'-phenylbutanoyl-(S)-leucyl]amino-4-methyl-pentanol; (2S,3R)-3-amino-2-hydroxy-4-phenylbutanoyl-(S)-leucyl-(S)-leucine; (2S,3R)-3-amino-2-hydroxy-4-phenyl-butanoyl-(S)-leucyl-(S)-arginine; (2S,3R)-3-amino-2-hydroxy-4-phenylbutanoyl-(S)-leucyl-(S)-asparagine; (2R,3R)-3-amino-2-hydroxy-4-phenylbutanoyl-(S)-leucyl-(R)-asparagine; and (2S,3R)-3-amino-2-hydroxy-4-phenylbutanoyl-(S)-leucyl-(R)-arginine at a dosage of 100 mg/kg."}}, "data": [{"compound": "N[C@H](Cc1ccccc1)[C@H](O)C(=O)O", "note": "[(2S,3R)-AHPA]", "values": [{"measurement": "solubility in water", "setting": "solubility in water", "result": "soluble in water"}, {"measurement": "Increase in thickness of footpad (± S.D.)", "setting": "[1]; Table 3, oral 0.01 mcg/mouse", "result": "10.6 ± 1.17", "unit": "× 0.1 mm"}, {"measurement": "Degree of swelling", "setting": "[1]; Table 3, oral 0.01 mcg/mouse", "result": 134, "unit": "%"}, {"measurement": "Increase in thickness of footpad (± S.D.)", "setting": "[1]; Table 3, oral 0.1 mcg/mouse", "result": "11.6 ± 1.85", "unit": "× 0.1 mm"}, {"measurement": "Degree of swelling", "setting": "[1]; Table 3, oral 0.1 mcg/mouse", "result": 147, "unit": "%"}, {"measurement": "Increase in thickness of footpad (± S.D.)", "setting": "[1]; Table 3, oral 1 mcg/mouse", "result": "11.9 ± 0.97", "unit": "× 0.1 mm"}, {"measurement": "Degree of swelling", "setting": "[1]; Table 3, oral 1 mcg/mouse", "result": 151, "unit": "%"}, {"measurement": "Increase in thickness of footpad (± S.D.)", "setting": "[1]; Table 3, oral 10 mcg/mouse", "result": "10.9 ± 0.57", "unit": "× 0.1 mm"}, {"measurement": "Degree of swelling", "setting": "[1]; Table 3, oral 10 mcg/mouse", "result": 138, "unit": "%"}, {"measurement": "Increase in thickness of footpad (± S.D.)", "setting": "[1]; Table 4, oral 0.01 mcg/mouse", "result": "10.1 ± 1.52", "unit": "× 0.1 mm"}, {"measurement": "Degree of swelling", "setting": "[1]; Table 4, oral 0.01 mcg/mouse", "result": 125, "unit": "%"}, {"measurement": "Increase in thickness of footpad (± S.D.)", "setting": "[1]; Table 4, oral 0.1 mcg/mouse", "result": "11.1 ± 0.82", "unit": "× 0.1 mm"}, {"measurement": "Degree of swelling", "setting": "[1]; Table 4, oral 0.1 mcg/mouse", "result": 137, "unit": "%"}, {"measurement": "Increase in thickness of footpad (± S.D.)", "setting": "[1]; Table 4, oral 1 mcg/mouse", "result": "10.8 ± 1.29", "unit": "× 0.1 mm"}, {"measurement": "Degree of swelling", "setting": "[1]; Table 4, oral 1 mcg/mouse", "result": 133, "unit": "%"}, {"measurement": "Degree of swelling, Intraperitoneal injection", "setting": "[1]; intraperitoneal 1 mcg/mouse", "result": 143, "unit": "%"}, {"measurement": "Degree of swelling, Intraperitoneal injection", "setting": "[1]; intraperitoneal 10 mcg/mouse", "result": 128, "unit": "%"}, {"measurement": "Degree of swelling, Oral administration", "setting": "[1]; oral 1 mcg/mouse", "result": 135, "unit": "%"}, {"measurement": "Degree of swelling, Oral administration", "setting": "[1]; oral 10 mcg/mouse", "result": 126, "unit": "%"}, {"measurement": "Increase in thickness of footpad (± S.D.)", "setting": "[1]; Table 7, oral 1 mcg/mouse", "result": "11.7 ± 1.29", "unit": "× 0.1 mm"}, {"measurement": "Degree of swelling", "setting": "[1]; Table 7, oral 1 mcg/mouse", "result": 135, "unit": "%"}, {"measurement": "Increase in thickness of footpad (± S.D.)", "setting": "[1]; Table 7, oral 10 mcg/mouse", "result": "11.0 ± 1.05", "unit": "× 0.1 mm"}, {"measurement": "Degree of swelling", "setting": "[1]; Table 7, oral 10 mcg/mouse", "result": 126, "unit": "%"}, {"measurement": "enhancement of cell-mediated immunity compared with bestatin", "setting": "[1]; intraperitoneal injection or oral administration", "result": "enhances the cell-mediated immunity as much as or much more than bestatin"}, {"measurement": "immunopotentiating activity compared with bestatin", "setting": "[1]; oral 0.01 to 10 mcg/mouse versus bestatin oral 1 to 10 mcg/mouse", "result": "exhibits the immunopotentiating activity as high as bestatin"}, {"measurement": "enhancement of D.T.H. response compared with bestatin", "setting": "[1]; oral, dosages lower than 1 mcg/mouse", "result": "enhances the D.T.H. response much more than bestatin"}, {"measurement": "enhancement of cell-mediated immunity", "setting": "[1]; oral, low dosage of 0.01 mcg/mouse", "result": "active to enhance the cell-mediated immunity"}, {"measurement": "inhibitory activity to aminopeptidase B", "setting": "aminopeptidase B", "result": "weak inhibitory activity"}, {"measurement": "acute toxicity: tolerance of intraperitoneal administration", "setting": "ICR-strain mice", "result": "tolerated"}]}]}
